Patent US20240360075A1, “N-SUBSTITUTED C6 CYCLYL CARBOXAMIDE COMPOUNDS AND USES THEREOF” (ALCON INC., priority 2023, published 2024)
Like-named read-outs stand apart in the source and are kept apart here.

Columns and labels:
[1] = target: mouse cold-menthol receptor TRPM8 (Mus musculus, UniProt Q8R4D5); conditions: described by Behrendt et al.; cited from earlier work
[2] = target: TRPM8 (Mus musculus, UniProt Q8R4D5); conditions: TRPV1 antagonists, described by Behrendt et al.; read-out: IC50 to block the response of TRPM8 to menthol; cited from earlier work
TRPM8 (Mus musculus, UniProt Q8R4D5), sequence (Q8R4D5 whole entry): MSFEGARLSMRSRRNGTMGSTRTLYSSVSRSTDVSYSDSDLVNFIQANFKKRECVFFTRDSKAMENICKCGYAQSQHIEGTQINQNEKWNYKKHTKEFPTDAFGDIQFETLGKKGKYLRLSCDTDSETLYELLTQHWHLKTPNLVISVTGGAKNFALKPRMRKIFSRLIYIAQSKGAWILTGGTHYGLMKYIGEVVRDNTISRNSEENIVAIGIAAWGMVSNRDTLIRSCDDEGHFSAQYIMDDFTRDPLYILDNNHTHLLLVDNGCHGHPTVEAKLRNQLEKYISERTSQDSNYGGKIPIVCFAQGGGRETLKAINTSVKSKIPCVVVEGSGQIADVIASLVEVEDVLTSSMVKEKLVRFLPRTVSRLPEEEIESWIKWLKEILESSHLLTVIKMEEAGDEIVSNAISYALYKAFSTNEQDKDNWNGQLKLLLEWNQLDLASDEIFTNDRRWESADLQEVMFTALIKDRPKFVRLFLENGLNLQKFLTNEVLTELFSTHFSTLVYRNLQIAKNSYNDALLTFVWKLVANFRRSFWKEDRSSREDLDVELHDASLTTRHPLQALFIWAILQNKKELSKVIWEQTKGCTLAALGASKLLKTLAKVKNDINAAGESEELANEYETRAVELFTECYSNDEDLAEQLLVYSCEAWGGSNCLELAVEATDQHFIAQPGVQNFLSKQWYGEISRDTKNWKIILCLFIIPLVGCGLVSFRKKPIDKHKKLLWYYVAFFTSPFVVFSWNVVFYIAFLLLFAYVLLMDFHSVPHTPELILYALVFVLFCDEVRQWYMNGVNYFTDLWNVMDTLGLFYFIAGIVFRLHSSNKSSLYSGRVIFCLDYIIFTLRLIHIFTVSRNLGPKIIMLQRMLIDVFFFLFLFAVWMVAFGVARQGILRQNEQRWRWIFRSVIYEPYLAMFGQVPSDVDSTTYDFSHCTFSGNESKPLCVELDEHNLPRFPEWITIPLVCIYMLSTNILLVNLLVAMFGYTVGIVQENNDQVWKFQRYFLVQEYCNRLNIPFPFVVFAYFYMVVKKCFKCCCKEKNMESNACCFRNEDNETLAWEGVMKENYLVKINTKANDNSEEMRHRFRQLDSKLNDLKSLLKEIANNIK

[3] = target: T1, TRPM8 (Homo sapiens, UniProt Q7Z2W7); assay: TRPM8 Human Transient Potential Ion Channel Cell Based Agonist Calcium Flux Assay (Eurofins Cerep item #3316); conditions: for Emax / Percent Agonist: control activator ligand icilin; for Emax: read-out: Percent Agonist; for EC50: room temperature
T1 construct: purchased Eurofins (Cerep) item #3316
T1 sequence (Q7Z2W7 whole entry): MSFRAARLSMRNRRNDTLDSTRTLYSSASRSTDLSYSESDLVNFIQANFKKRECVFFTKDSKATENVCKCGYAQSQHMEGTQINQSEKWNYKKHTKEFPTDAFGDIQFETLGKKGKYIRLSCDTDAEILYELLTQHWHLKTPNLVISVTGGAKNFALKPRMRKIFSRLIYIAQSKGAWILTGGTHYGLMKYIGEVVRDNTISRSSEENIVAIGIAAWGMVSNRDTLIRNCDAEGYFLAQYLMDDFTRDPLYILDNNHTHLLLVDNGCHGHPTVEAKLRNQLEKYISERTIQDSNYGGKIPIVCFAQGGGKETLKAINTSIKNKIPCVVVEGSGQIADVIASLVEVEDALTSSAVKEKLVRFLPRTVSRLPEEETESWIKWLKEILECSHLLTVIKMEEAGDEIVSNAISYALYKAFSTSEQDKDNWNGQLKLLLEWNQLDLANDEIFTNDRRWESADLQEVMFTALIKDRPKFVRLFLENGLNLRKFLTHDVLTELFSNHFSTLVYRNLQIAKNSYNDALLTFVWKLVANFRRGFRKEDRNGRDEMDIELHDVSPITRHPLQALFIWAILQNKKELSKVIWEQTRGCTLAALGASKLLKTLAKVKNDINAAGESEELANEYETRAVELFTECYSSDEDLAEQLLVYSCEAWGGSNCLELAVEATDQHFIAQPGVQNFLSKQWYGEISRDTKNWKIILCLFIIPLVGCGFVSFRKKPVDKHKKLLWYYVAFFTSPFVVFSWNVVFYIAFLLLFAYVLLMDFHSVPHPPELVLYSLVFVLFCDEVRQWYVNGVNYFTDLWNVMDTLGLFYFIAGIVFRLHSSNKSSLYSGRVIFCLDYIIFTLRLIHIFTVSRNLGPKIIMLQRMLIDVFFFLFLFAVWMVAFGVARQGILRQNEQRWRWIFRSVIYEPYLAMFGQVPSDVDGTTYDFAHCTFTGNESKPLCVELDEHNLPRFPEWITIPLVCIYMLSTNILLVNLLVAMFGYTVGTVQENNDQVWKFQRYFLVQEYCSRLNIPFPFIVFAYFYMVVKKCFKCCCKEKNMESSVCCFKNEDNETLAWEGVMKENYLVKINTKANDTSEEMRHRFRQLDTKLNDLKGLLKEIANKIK
Excerpt: Compounds can be tested using the commercially available kit from Eurofins “TRPM8 Human Transient Potential Ion Channel Cell Based Agonist Calcium Flux Assay, Cerep” item #3316, or using the assay, referenced by Eurofins, and described in Behrendt et al. “Characterization of the mouse cold-menthol receptor TRPM8 and vanilloid receptor type-1 VR1 using a fluorometric imaging plate reader (FLIPR) assay,” Br J Pharmacol. 2004 Feb;141(4):737-45, which are each incorporated herein by reference. […] 4.
The assay is done at room temperature and measures calcium flux.

[4] = target: T1, TRPM8; conditions: reported by the Eurofins website; cited from earlier work

mouse cold-menthol receptor TRPM8, sequence (Q8R4D5 whole entry): as the sequence (Q8R4D5 whole entry) above

Emax [3] [%] | EC50 [3] [µM] | SMILES | EC50 [1] [µM] | also measured
> 100 | < 0.1 | COc1ccc(NC(=O)[C@@H]2C[C@H](C)CC[C@H]2C(C)C)c(F)n1 [Compound 81] | – | –
> 75 | < 1 | CC(C)[C@@H]1CC[C@@H](C)C[C@H]1C(=O)NC12CCC(C(F)(F)F)(CC1)C2 [Compound 59] | – | –
> 75 | < 0.5 | COCCOc1ccc(NC(=O)[C@@H]2C[C@H](C)CC[C@H]2C(C)C)cc1 [Compound 3] | – | –
> 50 | < 1 | CC(C)[C@@H]1CC[C@@H](C)C[C@H]1C(=O)Nc1ccccc1CN(C)C [Compound 65] | – | –
> 100 | < 0.5 | CCOC(=O)CC1(c2ccc(NC(=O)[C@@H]3C[C@H](C)CC[C@H]3C(C)C)cc2)COC1 [Compound 24] | – | –
> 50 | < 10 | CC(C)[C@@H]1CC[C@@H](C)C[C@H]1C(=O)NC1CCC(S(C)(=O)=O)C1 (some centres unmarked) [Compound 106] | – | –
> 75 | < 0.1 | COC12CC(NC(=O)[C@@H]3C[C@H](C)CC[C@H]3C(C)C)(C1)C2 [Compound 25] | – | –
> 75 | < 1 | COCCN1CC(NC(=O)[C@@H]2C[C@H](C)CC[C@H]2C(C)C)C1 [Compound 26] | – | –
> 100 | < 3 | COC12CCC(NC(=O)c3cc(Cl)ccc3C(C)C)(CC1)CC2 [Compound 172] | – | –
– | < 0.5 | CC(C)[C@@H]1CC[C@@H](C)C[C@H]1C(=O)NC1CC2C(C1)C2(F)F (some centres unmarked) [102 or 92] | – | Percent Agonist [3]: >75%
> 75 | < 10 | CC(C)[C@@H]1CC[C@@H](C)C[C@H]1C(=O)NC1CN(CCO)C1 [Compound 28] | – | –
– | < 0.1 | CC(C)[C@@H]1CC[C@@H](C)C[C@H]1C(=O)NC1CC2C(C1)C2(F)F (some centres unmarked) [92 or 102] | – | Percent Agonist [3]: >50%
> 75 | < 0.5 | COC(=O)c1cc(NC(=O)[C@@H]2C[C@H](C)CC[C@H]2C(C)C)sn1 [Compound 62] | – | –
> 50 | < 0.1 | CC(C)[C@@H]1CC[C@@H](C)C[C@H]1C(=O)Nc1ccc(N2CCOCC2)cc1 [Compound 18] | – | –
> 75 | < 0.1 | CNC(=O)c1cc(OC)ccc1NC(=O)[C@@H]1C[C@H](C)CC[C@H]1C(C)C [Compound 61] | – | –
> 50 | < 0.1 | CC(C)[C@@H]1CC[C@@H](C)C[C@H]1C(=O)Nc1ccc2c(c1)B(O)OC2 [Compound 4] | – | –
> 50 | < 0.1 | CCOc1ccc(NC(=O)[C@@H]2C[C@H](C)CC[C@H]2C(C)C)cn1 [Compound 76] | – | –
> 75 | < 0.5 | COC(=O)c1ccc(NC(=O)[C@@H]2C[C@H](C)CC[C@H]2C(C)C)cn1 [Compound 78] | – | –
> 75 | < 10 | CC(C)[C@@H]1CC[C@@H](C)C[C@H]1C(=O)NCC1COC1 [Compound 56] | – | –
> 75 | < 2 | CC(C)[C@@H]1CC[C@@H](C)C[C@H]1C(=O)Nc1ccc(B2OC(C)(C)C(C)(C)O2)cn1 [Compound 79] | – | –
> 75 | < 0.5 | CC(C)[C@@H]1CC[C@@H](C)C[C@H]1C(=O)Nc1ccc(OCCN2CCCC2)cc1 [Compound 19] | – | –
> 50 | < 0.5 | COC1CC(NC(=O)[C@@H]2C[C@H](C)CC[C@H]2C(C)C)C1 (some centres unmarked) [Compound 48] | – | –
> 75 | < 0.1 | CC(C)[C@@H]1CC[C@@H](C)C[C@H]1C(=O)Nc1ccc(CCO)cc1 [Compound 17] | – | –
> 100 | < 0.5 | CC(C)[C@@H]1CC[C@@H](C)C[C@H]1C(=O)Nc1ccc(N2CCN(C)CC2)cc1 [Compound 2] | – | –

More lines, now with the values behind:

SMILES | Emax [3] [%] | EC50 [3] [µM] | EC50 [1] [µM] | also measured
CC(C)=CCC/C(C)=C/CO [geraniol] | – | – | 5900 ± 1600 | –
CCNC(=O)C1CC(C)CCC1C(C)C (centres unmarked) [WS-3] | – | – | 3.7 ± 1.7 | –
CC1CCC(C(C)C)C2(C1)OCC(CO)O2 (centres unmarked) [frescolatMAG] | – | – | 4.8 ± 1.1 | –
CC(O)C(=O)O[C@@H]1C[C@H](C)CC[C@H]1C(C)C (some centres unmarked) [FrescolatML] | – | – | 3.3 ± 1.5 | –
CC(C)[C@H]1CC[C@H](C)C[C@@H]1O [(+)menthol] | – | – | 14.4 ± 1.3 | –
C=C(C)[C@@H]1CC[C@@H](C)C[C@H]1O [Coolact P] | – | – | 66 ± 20 | –
C=CC(C)(O)CCC=C(C)C (centres unmarked) [linalool] | – | – | 6700 ± 2000 | –
CC(C)(C)c1ccc(NC(=O)N2CCN(c3ncccc3Cl)CC2)cc1 [BCTC, 4-(3-Chloro-2-pyridinyl)-N-[4-(1,1-dimethylethyl)phenyl]-1-piperazinecarboxamide] | – | – | – | IC50 [2]: 0.8 ± 1 µM
C[C@@H]1CC[C@@H](C(C)(C)O)[C@H](O)C1 [PMD38] | – | – | 31 ± 1.1 | –
CNC(=O)C(C)(C(C)C)C(C)C [WS-23] | – | – | 44 ± 7.3 | –
CC(C)[C@@H]1CC[C@@H](C)C[C@H]1O [(−)menthol] | – | – | 4.1 ± 1.3 | –
CC1CCC(C(C)C)C(OCC(O)CO)C1 (centres unmarked) [cooling agent 10] | – | – | 6 ± 2.2 | –
Oc1cc2c(cc1O)CN(C(=S)NCCc1ccc(Cl)cc1)CCC2 [capsazepine] | – | – | – | IC50 [2]: 18 ± 1.1 µM
CC(C)(C)c1ccc(NC(=S)N2CCN(c3ncccc3Cl)CC2)cc1 [thio-BCTC] | – | – | – | IC50 [2]: 3.5 ± 1.1 µM
CC12CCC(CC1)C(C)(C)O2 [eucalyptol] | – | – | 7700 ± 2000 | –
CC(CC=O)CCCC(C)(C)O (centres unmarked) [hydroxycitronellal] | – | – | 19600 ± 2200 | –
O=C1NC(c2cccc([N+](=O)[O-])c2)=CCN1c1ccccc1O [icilin] | – | – | – | EC50 [4]: 0.028 µM
